Source: ChEMBL document CHEMBL3832087, “DailyMed|setid=a60f39f6-d590-4b00-8751-7f12b7ec5385 | ZAFIRLUKAST- zafirlukast tablet, film coated|American Health Packaging”
Where “and” joins values, the source holds several entries; their conditions need not be identical. Equal entries are not always repeated.

Key:
Assay type in all cases: ADME, organism-based
Homo sapiens [1] = test: (§1) Evaluation of pharmacokinetic parameters for Zafirlukast following oral administration of Zafirlukast tablets in subjects of varying health status.; conditions: in vivo, po, dosed compound id 45, dosed compound name ZAFIRLUKAST, gender male and female, tissue Plasma
[2] = as §1; conditions: human, dosed compound id 45, dosed compound name ZAFIRLUKAST, tissue Plasma
Homo sapiens [3] = test: (§2) Evaluation of pharmacokinetic parameters for Zafirlukast following single oral administration to healthy boys and girls.; set-up: dose 20 mg, route oral; conditions: in vivo, po, dosed compound id 45, dosed compound name ZAFIRLUKAST, regimen Single dose, tissue Plasma; for CL/F / Tmax: dose 20 mg
[4] = as §2; set-up: dose 20 mg, route oral; conditions: both, human, in vivo, dose 20 mg, dosed compound id 45, dosed compound name ZAFIRLUKAST, regimen Single dose, route oral, tissue Plasma

t1/2 (Homo sapiens [1]): 8 h and 16 h and 10 h | fraction unbound ([2]; read-out: Protein binding): 0.01 | half-life ([2]; in vivo, gender male and female): 10 h | Tmax ([2]; in vivo): 3 h | Vd/F ([2]; in vivo, read-out: Vss/F): 70 L | CL/F (Homo sapiens [3]; gender male and female): 9.2 L/h and 11.4 L/h | Tmax (Homo sapiens [3]; gender male and female): 2.5 h | CL/F (Homo sapiens [3]; gender male): 19.4 L/h | Tmax (Homo sapiens [3]; gender male): 2 h | AUC (Homo sapiens [3]; gender male and female): 2458 ng·h/mL and 2027 ng·h/mL | Cmax (Homo sapiens [3]; gender male and female): 756 ng/mL and 601 ng/mL | AUC (Homo sapiens [3]; gender male): 1137 ng·h/mL | Cmax (Homo sapiens [3]; gender male): 326 ng/mL | Tmax ([4]; gender male and female): 2.1 h | half-life [4]: 13.3 h
SMILES: COc1cc(C(=O)NS(=O)(=O)c2ccccc2C)ccc1Cc1cn(C)c2ccc(NC(=O)OC3CCCC3)cc12 [ZAFIRLUKAST]
